Reference: paper PMC8190895 (RSC Chemical Biology, 2021)
Like-named read-outs stand apart in the source and are kept apart here.

Key:
Assay in all cases: ITC
Type in all cases: binding
[1] = molecular target: T1, Gal-8C (C-terminal CRD of human galectin-8) (Homo sapiens, UniProt O00214); settings: PBS (50 mM sodium phosphate, 150 mM NaCl) pH 7.4, 1 mM TCEP, 298 K
T1 sequence (O00214 184-317): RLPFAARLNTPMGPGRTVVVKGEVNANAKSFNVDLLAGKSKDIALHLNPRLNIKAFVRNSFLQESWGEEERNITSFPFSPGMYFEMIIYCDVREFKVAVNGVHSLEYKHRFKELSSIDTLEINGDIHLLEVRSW

[2] = molecular target: T2, Gal-8FL (full-length human galectin-8) (Homo sapiens, UniProt O00214); settings: PBS (50 mM sodium phosphate, 150 mM NaCl) pH 7.4, 1 mM TCEP, 298 K
T2 sequence (O00214 1-317): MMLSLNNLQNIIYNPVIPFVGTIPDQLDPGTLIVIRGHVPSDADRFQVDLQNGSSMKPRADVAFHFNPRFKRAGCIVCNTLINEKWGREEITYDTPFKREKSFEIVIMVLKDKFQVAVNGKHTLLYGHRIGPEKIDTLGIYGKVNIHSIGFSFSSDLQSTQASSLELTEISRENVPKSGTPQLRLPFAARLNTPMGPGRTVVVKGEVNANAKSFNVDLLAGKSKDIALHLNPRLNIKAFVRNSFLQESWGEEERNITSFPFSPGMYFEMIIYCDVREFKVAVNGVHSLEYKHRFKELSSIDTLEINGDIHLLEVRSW

[3] = molecular target: T3, Gal-8N (N-terminal CRD of human galectin-8) (Homo sapiens, UniProt O00214); settings: read-out: Neu5Acα2-3Galb1-3GalNAc (3); PBS (50 mM sodium phosphate, 150 mM NaCl) pH 7.4, 1 mM TCEP, 298 K
T3 sequence (O00214 1-155): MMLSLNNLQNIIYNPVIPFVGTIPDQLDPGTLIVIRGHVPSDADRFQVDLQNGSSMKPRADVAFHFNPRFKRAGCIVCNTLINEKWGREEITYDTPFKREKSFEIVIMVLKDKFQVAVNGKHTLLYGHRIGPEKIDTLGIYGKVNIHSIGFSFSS

CC(=O)N[C@H]1[C@@H](O[C@H]2[C@@H](O)[C@@H](CO)O[C@@H](O[C@H]3[C@H](O)[C@@H](NC(C)=O)C(O)O[C@@H]3CO)[C@@H]2O[C@@H]2O[C@@H](C)[C@@H](O)[C@@H](O)[C@@H]2O)O[C@H](CO)[C@H](O)[C@@H]1O (stereo partly drawn) [compound 6, A type II]
Kd ([1]; read-out: A type II (6)): 13.45 ± 0.05 µM | Kd ([2]; read-out: A type II (6), site: C-terminal CRD, not pre-loaded): 12 ± 1 µM

CC(=O)N[C@H]1C(O)O[C@H](CO)[C@@H](O[C@@H]2O[C@H](CO)[C@H](O)[C@H](O[C@H]3O[C@H](CO)[C@H](O)[C@H](O)[C@H]3O)[C@H]2O[C@@H]2O[C@@H](C)[C@@H](O)[C@@H](O)[C@@H]2O)[C@@H]1O (stereo partly drawn) [compound 5, B type II]
Kd ([1]; read-out: B type II (5)): 18.4 ± 0.1 µM | Kd ([2]; read-out: B type II (5), site: C-terminal CRD): 36.7 ± 0.6 µM

CC(=O)N[C@H]1[C@H]([C@H](O)[C@H](O)CO)O[C@@](O[C@H]2[C@@H](O)[C@@H](CO)O[C@@H](O[C@H]3[C@@H](O)[C@@H](CO)OC(O)[C@@H]3NC(C)=O)[C@@H]2O)(C(=O)O)C[C@@H]1O (stereo partly drawn) [compound 3, 3-sialyl-Galβ1–3GalNAc]
Kd [3]: 2.2 ± 0.1 µM | Kd ([2]; read-out: Neu5Acα2-3Galb1-3GalNAc (3), site: N-terminal CRD, not pre-loaded): 4.3 ± 0.4 µM
